In the NIST ThermoML archive (doi:10.1016/j.fluid.2011.01.012):
Numbers after ± are expanded uncertainties.

Assays:
[1] = Liquid; for mass density: 293.15 K, 101.33 kPa, Vibrating tube method; for Normal boiling temperature: Fischer Boiling Piont Apparatus
[2] = refractive index (Na D-line) (dimensionless); conditions: 293.15 K; 101.33 kPa; Liquid; Standard Abbe refractometry

| mass density [1] [kg/m3] | Normal boiling temperature [1] [°C] | refractive index [2] | SMILES |
| --- | --- | --- | --- |
| 1007.63 ± 0.34 | 245.1 ± 1 | 1.42725 ± 0.00039 | CCOC(=O)CCCCC(=O)OCC [diethyl hexanedioate] |
| 1040.22 ± 0.36 | 217.7 ± 1 | 1.42014 ± 0.00039 | CCOC(=O)CCC(=O)OCC [diethyl butanedioate] |
| 1022.04 ± 0.92 | 236.5 ± 1 | 1.42414 ± 0.00052 | CCOC(=O)CCCC(=O)OCC [diethyl glutarate] |
| 999.9 ± 0.24 | 100.1 ± 1 | 1.3324 ± 0.00033 | O [water] |
